In PubChem BioAssay (NCI):
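Each compound was tested at five concentrations against cells in 96-well plates for 48 hours. TGI marks complete inhibition of growth.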

Assays:
Test in all cases: growth of human tumour cells (NCI), 48 h
786-0 renal = system: 786-0 renal
A498 renal = system: A498 renal
A549 NSCLC = system: A549 NSCLC
ACHN renal = system: ACHN renal
BT-549 breast = system: BT-549 breast
CAKI-1 renal = system: CAKI-1 renal
CCRF-CEM leukemia = system: CCRF-CEM leukemia
COLO 205 colon = system: COLO 205 colon
DU-145 prostate = system: DU-145 prostate
EKVX NSCLC = system: EKVX NSCLC
HCC-2998 colon = system: HCC-2998 colon
HCT-116 colon = system: HCT-116 colon
HCT-15 colon = system: HCT-15 colon
HL-60(TB) leukemia = system: HL-60(TB) leukemia
HOP-62 NSCLC = system: HOP-62 NSCLC
HOP-92 NSCLC = system: HOP-92 NSCLC
HS 578T breast = system: HS 578T breast
HT29 colon = system: HT29 colon
IGROV1 ovarian = system: IGROV1 ovarian
K-562 leukemia = system: K-562 leukemia
KM12 colon = system: KM12 colon
LOX IMVI melanoma = system: LOX IMVI melanoma
M14 melanoma = system: M14 melanoma
MALME-3M melanoma = system: MALME-3M melanoma
MDA-MB-231 breast = system: MDA-MB-231 breast
MDA-MB-435 = system: MDA-MB-435
MDA-N = system: MDA-N
MOLT-4 leukemia = system: MOLT-4 leukemia
NCI-H226 lung = system: NCI-H226 lung
NCI-H23 lung = system: NCI-H23 lung
NCI-H460 lung = system: NCI-H460 lung
NCI-H522 lung = system: NCI-H522 lung
NCI/ADR-RES ovarian = system: NCI/ADR-RES ovarian
OVCAR-3 ovarian = system: OVCAR-3 ovarian
OVCAR-4 ovarian = system: OVCAR-4 ovarian
OVCAR-5 ovarian = system: OVCAR-5 ovarian
OVCAR-8 ovarian = system: OVCAR-8 ovarian
PC-3 prostate = system: PC-3 prostate
RPMI-8226 leukemia = system: RPMI-8226 leukemia
RXF 393 renal = system: RXF 393 renal
SF-268 CNS = system: SF-268 CNS
SF-295 CNS = system: SF-295 CNS
SF-539 CNS = system: SF-539 CNS
SK-MEL-2 melanoma = system: SK-MEL-2 melanoma
SK-MEL-28 melanoma = system: SK-MEL-28 melanoma
SK-MEL-5 melanoma = system: SK-MEL-5 melanoma
SK-OV-3 ovarian = system: SK-OV-3 ovarian
SN12C renal = system: SN12C renal
SNB-19 CNS = system: SNB-19 CNS
SNB-75 CNS = system: SNB-75 CNS
SR leukemia = system: SR leukemia
SW-620 colon = system: SW-620 colon
T-47D breast = system: T-47D breast
U251 CNS = system: U251 CNS
UACC-257 melanoma = system: UACC-257 melanoma
UACC-62 melanoma = system: UACC-62 melanoma
UO-31 renal = system: UO-31 renal

CCOC(=O)C(=Cc1ccccc1Cl)C(=O)OCC
TGI (786-0 renal): 2.82 µM
TGI (A498 renal): 5 µM
TGI (A549 NSCLC): 5.21 µM
TGI (ACHN renal): 7.62 µM
TGI (BT-549 breast): 4.59 µM
TGI (CAKI-1 renal): 4.27 µM
TGI (CCRF-CEM leukemia): 4.69 µM
TGI (COLO 205 colon): 3.02 µM
TGI (DU-145 prostate): 3.96 µM
TGI (EKVX NSCLC): 7.39 µM
TGI (HCC-2998 colon): > 10 µM
TGI (HCT-116 colon): 1.88 µM
TGI (HCT-15 colon): 4.83 µM
TGI (HL-60(TB) leukemia): 3.83 µM
TGI (HOP-62 NSCLC): 4.05 µM
TGI (HOP-92 NSCLC): 4.96 µM
TGI (HS 578T breast): > 10 µM
TGI (HT29 colon): 3.3 µM
TGI (IGROV1 ovarian): 7.31 µM
TGI (K-562 leukemia): 5.28 µM
TGI (KM12 colon): 2.67 µM
TGI (LOX IMVI melanoma): 4.5 µM
TGI (M14 melanoma): 2.95 µM
TGI (MALME-3M melanoma): 3.58 µM
TGI (MDA-MB-231 breast): 3.39 µM
TGI (MDA-MB-435): 3.29 µM
TGI (MDA-N): 4.93 µM
TGI (MOLT-4 leukemia): 6.27 µM
TGI (NCI-H226 lung): 5.56 µM
TGI (NCI-H23 lung): 3.83 µM
TGI (NCI-H460 lung): 7.22 µM
TGI (NCI-H522 lung): 4.02 µM
TGI (NCI/ADR-RES ovarian): 5.97 µM
TGI (OVCAR-3 ovarian): 2.76 µM
TGI (OVCAR-4 ovarian): 5.05 µM
TGI (OVCAR-5 ovarian): 4.13 µM
TGI (OVCAR-8 ovarian): 2.12 µM
TGI (PC-3 prostate): 4.3 µM
TGI (RPMI-8226 leukemia): 4.87 µM
TGI (RXF 393 renal): 3.78 µM
TGI (SF-268 CNS): 6.05 µM
TGI (SF-295 CNS): 6.31 µM
TGI (SF-539 CNS): 4.13 µM
TGI (SK-MEL-2 melanoma): 4.59 µM
TGI (SK-MEL-28 melanoma): 3.53 µM
TGI (SK-MEL-5 melanoma): 3.6 µM
TGI (SK-OV-3 ovarian): > 10 µM
TGI (SN12C renal): 3.91 µM
TGI (SNB-19 CNS): 3.53 µM
TGI (SNB-75 CNS): 0.617 µM
TGI (SR leukemia): > 10 µM
TGI (SW-620 colon): 2.6 µM
TGI (T-47D breast): 8.86 µM
TGI (U251 CNS): 3.07 µM
TGI (UACC-257 melanoma): 3.21 µM
TGI (UACC-62 melanoma): 3.67 µM
TGI (UO-31 renal): 3.2 µM
